Test [1] concerns the target T1, human Kv1.1 (Homo sapiens, UniProt Q09470).
T1 construct: expressed in transfected cells; host or cells: CHO
Briefly: cell-based.

For test [2], the target named is T2, human Kv1.2 (Homo sapiens, UniProt P16389).
T2 construct: expressed in transfected cells; host or cells: CHO
Briefly: cell-based.

Test [3] deals with T3, human Kv1.6 (Homo sapiens, UniProt P17658).
T3 construct: expressed in transfected cells; host or cells: CHO
Briefly: cell-based.

The target of test [4] is Rat whole blood (Rattus norvegicus, UniProt P15384). The class given is cell-based.
Rat whole blood, sequence (P15384 whole entry): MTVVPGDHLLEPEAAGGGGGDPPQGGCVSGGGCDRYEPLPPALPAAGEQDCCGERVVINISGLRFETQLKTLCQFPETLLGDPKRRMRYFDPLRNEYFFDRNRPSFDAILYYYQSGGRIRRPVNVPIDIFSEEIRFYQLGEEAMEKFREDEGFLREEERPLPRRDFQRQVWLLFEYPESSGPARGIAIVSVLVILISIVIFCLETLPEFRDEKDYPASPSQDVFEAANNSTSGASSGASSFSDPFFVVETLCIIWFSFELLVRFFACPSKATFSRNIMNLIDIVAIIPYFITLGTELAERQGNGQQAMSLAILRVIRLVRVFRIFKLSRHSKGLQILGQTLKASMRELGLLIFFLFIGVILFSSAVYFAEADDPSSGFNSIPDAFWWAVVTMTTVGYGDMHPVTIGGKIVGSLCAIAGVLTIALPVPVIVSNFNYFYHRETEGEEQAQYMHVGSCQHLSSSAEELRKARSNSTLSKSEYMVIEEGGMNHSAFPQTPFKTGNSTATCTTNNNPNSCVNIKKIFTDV
The mark [5] stands for this setting: ratio of patch clamp IC50 values.
Setting [6] is: IL-17A release, thapsigargin, 24 Hr, at least 2 replicates.

Structures are written as SMILES. Like-named read-outs stand apart in the source and are kept apart here. Where a SMILES comes first, the peptide text is derived from it. Bridges are numbered along the chain shown (N, C = ends). [ ]: non-standard residue; d: D form. Nle = CCCC[C@H](N)C(=O)O

T3 sequence (P17658 whole entry): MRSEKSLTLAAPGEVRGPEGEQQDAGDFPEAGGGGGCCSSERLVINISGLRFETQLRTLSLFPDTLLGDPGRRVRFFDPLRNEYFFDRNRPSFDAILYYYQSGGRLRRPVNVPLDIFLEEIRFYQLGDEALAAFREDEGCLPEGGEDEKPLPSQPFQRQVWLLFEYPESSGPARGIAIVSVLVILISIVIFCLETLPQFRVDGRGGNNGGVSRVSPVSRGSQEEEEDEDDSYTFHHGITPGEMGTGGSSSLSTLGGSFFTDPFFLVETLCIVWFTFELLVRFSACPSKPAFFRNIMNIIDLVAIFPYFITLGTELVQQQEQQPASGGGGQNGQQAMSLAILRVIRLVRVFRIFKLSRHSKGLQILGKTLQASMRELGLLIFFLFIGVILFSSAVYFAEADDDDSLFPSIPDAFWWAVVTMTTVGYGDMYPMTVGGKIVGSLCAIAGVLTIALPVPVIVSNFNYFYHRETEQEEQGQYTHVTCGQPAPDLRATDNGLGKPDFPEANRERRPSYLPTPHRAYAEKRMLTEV
T2 sequence (P16389 whole entry): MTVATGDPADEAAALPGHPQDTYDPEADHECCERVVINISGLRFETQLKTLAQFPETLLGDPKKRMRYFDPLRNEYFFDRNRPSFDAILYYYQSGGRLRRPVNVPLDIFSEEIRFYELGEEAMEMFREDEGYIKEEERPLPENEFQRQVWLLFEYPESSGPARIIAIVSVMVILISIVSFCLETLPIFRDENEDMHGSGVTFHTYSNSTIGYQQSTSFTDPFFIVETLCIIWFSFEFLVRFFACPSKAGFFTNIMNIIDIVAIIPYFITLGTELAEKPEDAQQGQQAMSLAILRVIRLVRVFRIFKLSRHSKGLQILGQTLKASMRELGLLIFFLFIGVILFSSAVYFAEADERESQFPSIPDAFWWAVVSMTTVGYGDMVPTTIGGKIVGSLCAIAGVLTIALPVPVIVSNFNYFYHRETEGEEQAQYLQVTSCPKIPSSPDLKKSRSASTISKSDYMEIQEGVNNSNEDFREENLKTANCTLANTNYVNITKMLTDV
T1 sequence (Q09470 whole entry): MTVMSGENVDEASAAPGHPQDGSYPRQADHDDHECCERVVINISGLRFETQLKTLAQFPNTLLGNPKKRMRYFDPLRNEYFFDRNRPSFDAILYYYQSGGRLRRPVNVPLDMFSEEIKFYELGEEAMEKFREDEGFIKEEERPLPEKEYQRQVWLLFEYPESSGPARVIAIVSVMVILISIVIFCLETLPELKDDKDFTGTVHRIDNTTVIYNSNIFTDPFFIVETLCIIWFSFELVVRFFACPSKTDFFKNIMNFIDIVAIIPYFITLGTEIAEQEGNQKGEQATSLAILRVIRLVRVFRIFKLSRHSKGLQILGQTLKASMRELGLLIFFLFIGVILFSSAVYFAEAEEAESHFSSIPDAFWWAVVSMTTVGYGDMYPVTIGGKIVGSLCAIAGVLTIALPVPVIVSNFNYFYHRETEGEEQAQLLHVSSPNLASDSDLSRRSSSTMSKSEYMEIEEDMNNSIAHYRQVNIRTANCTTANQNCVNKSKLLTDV

As for `CCCC[C@@H]1NC(=O)[C@@H]2CSSC[C@H](NC(=O)[C@H](CCCNC(=N)N)NC(=O)[C@H](CCCC)NC(=O)[C@H](CC(=O)O)NC(=O)[C@H](CCCC)NC(=O)[C@@H](N)CC(N)=O)C(=O)N[C@@H](CO)C(=O)N[C@@H](Cc3c[nH]cn3)C(=O)N[C@@H](CO)C(=O)N[C@@H](C(C)C)C(=O)N[C@@H](CCC(=O)O)C(=O)N[C@H]3CSSC[C@H](NC(=O)[C@H](CCCCN)NC(=O)[C@H](CCCCN)NC(=O)[C@H](CC(N)=O)NC1=O)C(=O)N[C@@H](CCCCN)C(=O)N[C@H](C(=O)N[C@@H](Cc1ccc(O)cc1)C(=O)N1CCC[C@H]1C(=O)N[C@@H](CCCNC(=N)N)C(N)=O)CSSC[C@H](NC(=O)[C@H](CCCCN)NC(=O)[C@H](CCC(N)=O)NC(=O)[C@H](CCCCN)NC3=O)C(=O)N[C@@H](CC(C)C)C(=O)N[C@@H](CCCCN)C(=O)N[C@@H](C)C(=O)N[C@@H]([C@@H](C)CC)C(=O)NCC(=O)N[C@@H](CO)C(=O)N[C@@H]([C@@H](C)CC)C(=O)N[C@@H](Cc1ccccc1)C(=O)NCC(=O)N[C@@H](CCCCN)C(=O)N2` [compound 51] (H-N[Nle]D[Nle]RCSHSVECKQKCLKAIGSIFGKC[Nle]NKKCKCYPR-NH2; disulfide 6-27, 12-32, 16-34), the “Selectivity ratio Kv1.1/Kv1.3” value in test [1] (setting [5]) is listed as greater than 5600. In addition, the “Selectivity ratio Kv1.2/Kv1.3” value in test [2] (setting [5]) came out at 1438. For the same compound, the “Selectivity ratio Kv1.6/Kv1.3” value in test [3] (setting [5]) was 1134. The midpoint of inhibition in test [4] (setting [6]), the IC50, lay at 0.83 nM.
On to `CCCC[C@@H]1NC(=O)[C@@H]2CSSC[C@H](NC(=O)[C@H](CCCNC(=N)N)NC(=O)[C@H](CCCC)NC(=O)[C@H](CCC(=O)O)NC(=O)[C@@H](NC(=O)[C@@H]3CCCN3)[C@@H](C)CC)C(=O)N[C@@H](CO)C(=O)N[C@@H](C)C(=O)N[C@@H](CO)C(=O)N[C@@H](C(C)C)C(=O)N[C@@H](CCC(=O)O)C(=O)N[C@H]3CSSC[C@H](NC(=O)[C@H](CCCCN)NC(=O)[C@H](CCCCN)NC(=O)[C@H](CC(N)=O)NC1=O)C(=O)N[C@@H](CCCCN)C(=O)N[C@H](C(=O)N[C@@H](Cc1ccc(O)cc1)C(=O)N1CCC[C@H]1C(=O)N[C@@H](CCCNC(=N)N)C(=O)O)CSSC[C@H](NC(=O)[C@H](CCCCN)NC(=O)[C@H](CCC(N)=O)NC(=O)[C@H](CCCCN)NC3=O)C(=O)N[C@@H](CC(C)C)C(=O)N[C@@H](CCCCN)C(=O)N[C@@H](C)C(=O)N[C@@H]([C@@H](C)CC)C(=O)NCC(=O)N[C@@H](CO)C(=O)N[C@@H]([C@@H](C)CC)C(=O)N[C@@H](Cc1ccccc1)C(=O)NCC(=O)N[C@@H](CCCCN)C(=O)N2` [compound 92] (H-PIE[Nle]RCSASVECKQKCLKAIGSIFGKC[Nle]NKKCKCYPR-OH; disulfide 6-27, 12-32, 16-34), for which the “Selectivity ratio Kv1.1/Kv1.3” value in test [1] is given as greater than 7800. Besides, the “Selectivity ratio Kv1.2/Kv1.3” value in test [2] is on record as 4561. Also, in test [3], the “Selectivity ratio Kv1.6/Kv1.3” value is recorded as greater than 7800. In addition, the IC50 (usually the midpoint of a concentration-inhibition curve) in test [4] turned out to be 1.8 nM.
For `CC[C@H](C)[C@@H]1NC(=O)[C@H](C)NC(=O)[C@H](CCCCN)NC(=O)[C@H](CC(C)C)NC(=O)[C@@H]2CSSC[C@@H](C(=O)N[C@@H](Cc3ccc(O)cc3)C(=O)N3CCC[C@H]3C(=O)N[C@@H](CCCNC(=N)N)C(N)=O)NC(=O)[C@H](CCCCN)NC(=O)[C@@H]3CSSC[C@H](NC(=O)[C@H](CCC(=O)O)NC(=O)[C@H](C(C)C)NC(=O)[C@H](CO)NC(=O)[C@H](C)NC(=O)[C@H](CO)NC(=O)[C@@H](NC(=O)[C@H](CCCNC(=N)N)NC(=O)[C@H](CCSC)NC(=O)[C@H](CC(=O)O)NC(=O)[C@H](CCSC)NC(=O)[C@@H](N)CC(N)=O)CSSC[C@H](NC(=O)[C@H](CCCCN)NC(=O)CNC(=O)[C@H](Cc4ccccc4)NC(=O)[C@H](CCCCN)NC(=O)[C@H](CO)NC(=O)CNC1=O)C(=O)N[C@@H](CCSC)C(=O)N[C@@H](CC(N)=O)C(=O)N[C@@H](CCCCN)C(=O)N[C@@H](CCCCN)C(=O)N3)C(=O)N[C@@H](CCCCN)C(=O)N[C@@H](CCC(N)=O)C(=O)N[C@@H](CCCCN)C(=O)N2` [compound 38] (H-NMDMRCSASVECKQKCLKAIGSKFGKCMNKKCKCYPR-NH2; disulfide 6-27, 12-32, 16-34), the “Selectivity ratio Kv1.1/Kv1.3” value in test [1] (setting [5]) is greater than 7100. Moreover, the “Selectivity ratio Kv1.2/Kv1.3” value in test [2] (setting [5]) was found to be 237. Moreover, the “Selectivity ratio Kv1.6/Kv1.3” value in test [3] (setting [5]) is recorded as 490. Also, the IC50 in test [4] (setting [6]) was 2.1 nM.
On to `CC[C@H](C)[C@@H]1NC(=O)[C@H](C)NC(=O)[C@H](CCCCN)NC(=O)[C@H](CC(C)C)NC(=O)[C@@H]2CSSC[C@@H](C(=O)N[C@@H](Cc3ccc(O)cc3)C(=O)N3CCC[C@H]3C(=O)N[C@@H](CCCNC(=N)N)C(=O)O)NC(=O)[C@H](CCCCN)NC(=O)[C@@H]3CSSC[C@H](NC(=O)[C@H](CCC(=O)O)NC(=O)[C@H](C(C)C)NC(=O)[C@H](CO)NC(=O)[C@H](C)NC(=O)[C@H](CO)NC(=O)[C@@H](NC(=O)[C@H](CCCNC(=N)N)NC(=O)[C@H](CCSC)NC(=O)[C@H](CC(=O)O)NC(=O)[C@H](CCSC)NC(=O)[C@@H](N)CCC(N)=O)CSSC[C@H](NC(=O)[C@H](CCCCN)NC(=O)CNC(=O)[C@H](Cc4ccccc4)NC(=O)CNC(=O)[C@H](CCCNC(=N)N)NC(=O)CNC1=O)C(=O)N[C@@H](CCSC)C(=O)N[C@@H](CC(N)=O)C(=O)N[C@@H](CCCCN)C(=O)N[C@@H](CCCCN)C(=O)N3)C(=O)N[C@@H](CCCCN)C(=O)N[C@@H](CCC(N)=O)C(=O)N[C@@H](CCCCN)C(=O)N2` [compound 16] (H-QMDMRCSASVECKQKCLKAIGRGFGKCMNKKCKCYPR-OH; disulfide 6-27, 12-32, 16-34), for which the “Selectivity ratio Kv1.1/Kv1.3” value in test [1] (setting [5]) is given as greater than 2000. In addition, the “Selectivity ratio Kv1.2/Kv1.3” value in test [2] (setting [5]) is listed as 65. In addition, in test [3] (setting [5]), the “Selectivity ratio Kv1.6/Kv1.3” value came out at 1204.
For `CCCC[C@H](NC(=O)[C@H](CC(=O)O)NC(=O)[C@H](CCCC)NC(=O)[C@@H](N)CO)C(=O)N[C@@H](CCCNC(=N)N)C(=O)N[C@H]1CSSC[C@@H]2NC(=O)[C@H](CCCCN)NC(=O)CNC(=O)[C@H](Cc3ccccc3)NC(=O)[C@H]([C@@H](C)CC)NC(=O)[C@H](CO)NC(=O)CNC(=O)[C@H]([C@@H](C)CC)NC(=O)[C@H](C)NC(=O)[C@H](CCCCN)NC(=O)[C@H](CC(C)C)NC(=O)[C@@H]3CSSC[C@@H](C(=O)N[C@@H](Cc4ccc(O)cc4)C(=O)N4CCC[C@H]4C(=O)N[C@@H](CCCNC(=N)N)C(N)=O)NC(=O)[C@H](CCCCN)NC(=O)[C@H](CSSC[C@H](NC(=O)[C@H](CCC(=O)O)NC(=O)[C@H](C(C)C)NC(=O)[C@H](CO)NC(=O)[C@H](C)NC(=O)[C@H](CO)NC1=O)C(=O)N[C@@H](C)C(=O)N[C@@H](CCC(N)=O)C(=O)N[C@@H](CO)C(=O)N3)NC(=O)[C@H](CCCCN)NC(=O)[C@H](CCCCN)NC(=O)[C@H](CC(N)=O)NC(=O)[C@H](CCSC)NC2=O` [compound 78] (H-S[Nle]D[Nle]RCSASVECAQSCLKAIGSIFGKCMNKKCKCYPR-NH2; disulfide 6-27, 12-32, 16-34), the “Selectivity ratio Kv1.1/Kv1.3” value in test [1] (setting [5]) was greater than 14600. Besides, the “Selectivity ratio Kv1.2/Kv1.3” value in test [2] (setting [5]) was 5596. Further, in test [3] (setting [5]), the “Selectivity ratio Kv1.6/Kv1.3” value was greater than 14600.
As for `CC[C@H](C)[C@@H]1NC(=O)[C@H](C)NC(=O)[C@H](CCCCN)NC(=O)[C@H](CC(C)C)NC(=O)[C@@H]2CSSC[C@@H](C(=O)N[C@@H](Cc3ccc(O)cc3)C(=O)N3CCC[C@H]3C(=O)N[C@@H](CCCNC(=N)N)C(=O)O)NC(=O)[C@H](CCCCN)NC(=O)[C@@H]3CSSC[C@H](NC(=O)[C@H](CCC(=O)O)NC(=O)[C@H](C(C)C)NC(=O)[C@H](CO)NC(=O)[C@H](C)NC(=O)[C@H](CO)NC(=O)[C@@H](NC(=O)[C@H](CCCNC(=N)N)NC(=O)[C@H](CCSC)NC(=O)[C@H](CCC(=O)O)NC(=O)[C@H](CCSC)NC(=O)[C@@H](N)CC(N)=O)CSSC[C@H](NC(=O)[C@H](CCCCN)NC(=O)CNC(=O)[C@H](Cc4ccccc4)NC(=O)[C@H]([C@@H](C)CC)NC(=O)[C@H](CO)NC(=O)CNC1=O)C(=O)N[C@@H](CCSC)C(=O)N[C@@H](CC(N)=O)C(=O)N[C@@H](CCCCN)C(=O)N[C@@H](CCCCN)C(=O)N3)C(=O)N[C@@H](CCCCN)C(=O)N[C@@H](CCC(N)=O)C(=O)N[C@@H](CCCCN)C(=O)N2` [compound 20] (H-NMEMRCSASVECKQKCLKAIGSIFGKCMNKKCKCYPR-OH; disulfide 6-27, 12-32, 16-34), the “Selectivity ratio Kv1.1/Kv1.3” value in test [1] (setting [5]) is recorded as greater than 27600. In addition, the “Selectivity ratio Kv1.2/Kv1.3” value in test [2] (setting [5]) was 2093. For the same compound, the “Selectivity ratio Kv1.6/Kv1.3” value in test [3] (setting [5]) is on record as greater than 27600.
On to `CC[C@H](C)[C@@H]1NC(=O)[C@H](CCCNC(=N)N)NC(=O)[C@H](CCCCN)NC(=O)[C@H](CC(C)C)NC(=O)[C@@H]2CSSC[C@@H](C(=O)N[C@@H](Cc3ccc(O)cc3)C(=O)N3CCC[C@H]3C(=O)N[C@@H](CCCNC(=N)N)C(N)=O)NC(=O)[C@H](CCCCN)NC(=O)[C@@H]3CSSC[C@H](NC(=O)[C@H](CCC(=O)O)NC(=O)[C@H](C(C)C)NC(=O)[C@H](CO)NC(=O)[C@H](C)NC(=O)[C@H](CO)NC(=O)[C@@H](NC(=O)[C@H](CCCNC(=N)N)NC(=O)[C@H](CCSC)NC(=O)[C@H](CC(=O)O)NC(=O)[C@H](CCSC)NC(=O)[C@@H](N)CC(N)=O)CSSC[C@H](NC(=O)[C@H](CCCCN)NC(=O)CNC(=O)[C@H](Cc4ccccc4)NC(=O)[C@H]([C@@H](C)CC)NC(=O)[C@H](CO)NC(=O)CNC1=O)C(=O)N[C@@H](CCSC)C(=O)N[C@@H](CC(N)=O)C(=O)N[C@@H](CCCCN)C(=O)N[C@@H](CCCCN)C(=O)N3)C(=O)N[C@@H](CCCCN)C(=O)N[C@@H](CCC(N)=O)C(=O)N[C@@H](CCCCN)C(=O)N2` [compound 60] (H-NMDMRCSASVECKQKCLKRIGSIFGKCMNKKCKCYPR-NH2; disulfide 6-27, 12-32, 16-34), for which the “Selectivity ratio Kv1.1/Kv1.3” value in test [1] (setting [5]) was greater than 9900. Besides, the “Selectivity ratio Kv1.2/Kv1.3” value in test [2] (setting [5]) is 187. The “Selectivity ratio Kv1.6/Kv1.3” value in test [3] (setting [5]) amounted to 3062.

These data come from US20240182531A1, “KV1.3 Blockers” (priority 2021, published 2024).
